Results published in US20180016596A1, “NUCLEIC ACID CONSTRUCTS, PLANTS COMPRISING SAME AND USES THEREOF IN ENHANCING PLANT PEST RESISTANCE AND ALTERING PLANT MONOTERPENE PROFILE” (Futuragene Israel Ltd., priority 2014, published 2018).

Test system: Ophelimus maskelli
Assay: Free choice experiment: Eucalyptus camaldulensis saplings with monoterpene disks exposed to Ophelimus maskelli gall wasps
Assay type: in vivo
Details: for Eucalyptus camaldulensis resistance to Ophelimus maskelli infection / Ophelimus maskelli oviposition / number of infected leaves compared to control / number of galls per leaf compared to control: free choice, in words; for Ophelimus maskelli oviposition: compared to controls; for number of infected leaves compared to control: eucalyptol vs mineral oil, geraniol and citronellal vs mineral oil and eucalyptol controls; for number of galls per leaf compared to control: vs mineral oil and eucalyptol controls
Experimental: Preparation of monoterpene disks—100 μl of pure monoterpene solutions of geraniol, citronellal, eucalyptol (also known as 1,8-cineole, 1,8-epoxy-p-menthane) or mineral oil (Sigma-Aldrich Cat. Nos. G9698, 27470, C80601 or M5904, respectively) were each mixed with 5 ml of Vaseline. The mixed solutions were then spread using a spatula onto 20 mm in diameter filter paper disks (Whatman 3 mm cellulose chromatography papers, Sigma-Aldrich Cat. No. Z742422).
Free choice experiments—The free-choice experiments, were gall wasps were free to choose which plant to infest in a given cage, were carried out with Ophelimus maskelli gall wasp in three net cages of 80 cm×100 cm×150 cm in a greenhouse (28 ±2° C.) as described in Bleeker et al. [Plant Physiol. (2009) 151(2): 925-935], with the following modifications. Four Eucalyptus camaldulensis 3 months old saplings were placed randomly in each cage and 10 disks with either geraniol, citronellal, eucalyptol (1,8-Cineole, used as control) or mineral oil (used as control) were attached by metal wires to the branches of each sapling (10 branches for each sapling) (see FIG. 2) so that each sapling had 10 disks attached with one of the treatments. Next, 500 Ophelimus maskelli female adult wasps were released in the middle of each net cage. One week later the disks were removed from the branches of the saplings, the saplings were taken out of the cage and thereafter the Eucalyptus saplings were transferred to an insect free net house, an outdoor perimeter surrounded by a 50 mesh insect proof net. The plants were maintained in the net house for 6 weeks after inoculation. At the end of the six week period, infection levels were evaluated by counting the number of galls developed on the treated saplings.

[1] = average of 3 cages, leaves with 1-10 galls per leaf
[2] = average of 3 cages, leaves with 10-50 galls per leaf
[3] = average of 3 cages, leaves with 50-100 galls per leaf
[4] = cage 1, leaves with 1-10 galls per leaf, 6 weeks after inoculation
[5] = cage 1, leaves with 10-50 galls per leaf, 6 weeks after inoculation
[6] = cage 1, leaves with 50-100 galls per leaf, 6 weeks after inoculation
[7] = cage 1, total, 6 weeks after inoculation
[8] = cage 2, leaves with 1-10 galls per leaf, 6 weeks after inoculation
[9] = cage 2, leaves with 10-50 galls per leaf, 6 weeks after inoculation
[10] = cage 2, leaves with 50-100 galls per leaf, 6 weeks after inoculation
[11] = cage 2, total, 6 weeks after inoculation
[12] = cage 3, leaves with 1-10 galls per leaf, 6 weeks after inoculation
[13] = cage 3, leaves with 10-50 galls per leaf, 6 weeks after inoculation
[14] = cage 3, leaves with 50-100 galls per leaf, 6 weeks after inoculation
[15] = cage 3, total, 6 weeks after inoculation

SMILES	Number of infected leaves [1]	Number of infected leaves [2]	Number of infected leaves [3]	Number of infected leaves (average of 3 cages, total)	Number of infected leaves [4]	Number of infected leaves [5]	Number of infected leaves [6]	Number of infected leaves [7]	Number of infected leaves [8]	Number of infected leaves [9]	Number of infected leaves [10]	Number of infected leaves [11]	Number of infected leaves [12]	Number of infected leaves [13]	Number of infected leaves [14]	Number of infected leaves [15]	Eucalyptus camaldulensis resistance to Ophelimus maskelli infection	Ophelimus maskelli oviposition	number of infected leaves compared to control	number of galls per leaf compared to control
CC(C)=CCCC(C)CC=O (stereo not shown) [citronellal, 3,7-dimethyloct-6-en-1-al]	1	3	0	4	1	4	0	5	1	2	0	3	1	3	0	4	significantly increased	significantly decreased	reduced number of infected leaves	reduced number of galls per leaf
CC12CCC(CC1)C(C)(C)O2 [eucalyptol, 1,8-cineole, reference compound]	5.333	10	6	21.33	4	14	6	24	5	6	6	17	7	10	6	23	–	did not have a negative effect	slight increase	–
CC(C)=CCC/C(C)=C/CO [geraniol, (trans)-3,7-Dimethyl-2,6-octadien-1-ol]	4	2	1	7	4	3	1	8	4	2	1	7	4	1	1	6	significantly increased	significantly decreased	reduced number of infected leaves	reduced number of galls per leaf
